Data reported in patent US9655882B2, “Compositions and methods for treatment of neurodegenerative disease” (THE JOHNS HOPKINS UNIVERSITY, priority 2008, dated 2017).
Read-outs that look alike come from different tables or passages of the source.

Key:
[1] = tested on: Mouse retinal ganglion cells (RGCs); assay: Live-dead assay of cultured mouse RGCs (Cellomics VTI HCS reader), live cell count; conditions: approximately 2 days culture, various concentrations, FIG. 4
[2] = tested on: mouse RGCs; assay: RGC survival in purified primary mouse RGC culture (high-content screening, Calcein AM/Hoechst/Ethidium Homodimer-1); assay type: cell-based
Method: Purified mouse RGCs were grown in Neurobasal, 2% B27, 1% N2 supplement, 0.5 mM glutamine. […] Increasing concentrations of kinase inhibitors were present in the media as indicated. Viability and neurite growth of RGCs were assayed by a combined staining with Calcein AM, Hoechst, and Ethidium Homodimer-1. The images were taken and processed by Cellomics Kineticscan.
RGC survival and neurite growth were quantitatively measured as average surviving RGCs/field (4 mm^2) (FIG. 2C), total neurite length per RGC (FIG. 2D), average neurite length per RGC (FIG. 2E), and total neurite count per RGC (FIG. 2F).

[3] = tested on: mouse RGCs; assay: RGC neurite growth in purified primary mouse RGC culture (high-content screening); assay type: cell-based; conditions: Example 4, at 100 nM
Method: Purified mouse RGCs were grown in Neurobasal, 2% B27, 1% N2 supplement, 0.5 mM glutamine. 2 μM forskolin was present in all the conditions except vehicle control with DMSO (dark bar), for 60 hours. Increasing concentrations of kinase inhibitors were present in the media as indicated. Viability and neurite growth of RGCs were assayed by a combined staining with Calcein AM, Hoechst, and Ethidium Homodimer-1. The images were taken and processed by Cellomics Kineticscan. […] Error bars: S.E.M.
RGC survival and neurite growth were quantitatively measured as average surviving RGCs/field (4 mm^2) (FIG. 2C), total neurite length per RGC (FIG. 2D), average neurite length per RGC (FIG. 2E), and total neurite count per RGC (FIG. 2F). Error bars: S.E.M.
To enhance the assay sensitivity, the culture condition is defined to support a baseline level of RGC viability (20˜60% surviving RGCs after three days in culture) and neurite growth by 2.5 μM forskolin.

[4] = tested on: mouse RGCs; assay type: in vivo; conditions: for RGC loss / RGC survival after optic nerve injury: intravitreal injection of 1 μl (2 mM) every three days for nine days
Text: . Mouse optic nerve crush is a well-established animal model in mimicking the pathological conditions in which the primary injury sites are focal to RGC axons such as in glaucoma, AION, traumatic optic neuropathy, and multiple sclerosis. Specific RGC loss following nerve crush, which largely spares displaced amacrine cells in GCL, is thought to result from incomplete understood mechanism that implicates the blockage of retrograde axonal transport and subsequently impaired neurotrophin signaling, and excitotoxicity etc. In addition, mouse optic nerve crush has been successfully employed as an experimental system to identify the genetic nature controlling RGC susceptibility to axon injury.
During the procedure, the optic nerve was carefully exposed through a post-orbital approach, and crushed with a self-closing forceps for three seconds. […] Since RGCs populate ˜60% cells in rodent GCL, the estimated surviving RGC is ˜57.3%. […]. […]

[5] = tested on: activated Caspase-3; assay: Activated Caspase-3 positive (apoptotic) cells in GCL after mouse optic nerve crush; assay type: in vivo; conditions: three days following nerve crush, systemic treatment
Text: Apoptosis has been identified as the major form of RGC death in many, if not all, degenerative conditions targeting their axons, and in mouse optic nerve.

[6] = tested on: mouse RGCs; assay: Excitotoxicity (glutamate, KA, NMDA, AMPA) in purified mouse RGCs in vitro; assay type: cell-based; conditions: 1 μM sunitinib
Method: Neuronal toxicity of excitatory amino acid glutamate and its analogue NMDA is implicated in a number of neurodegenerative conditions that involve RGC, such as glaucoma, optic neuropathies of trauma and other origins, and that affect other CNS structures, such as Alzheimer's disease, Parkinson's disease, Huntington's disease, stroke, and […] (ALS). […] RGC viability was measured and the percentage of RGC loss due to the excitotoxicity was calculated.

[7] = tested on: RGC; assay: RGC survival under Flt3 ligand with or without sunitinib; assay type: cell-based
[8] = target: T1, FLT3 (Homo sapiens, UniProt P36888); conditions: cited from earlier work
T1 sequence (P36888 27-993): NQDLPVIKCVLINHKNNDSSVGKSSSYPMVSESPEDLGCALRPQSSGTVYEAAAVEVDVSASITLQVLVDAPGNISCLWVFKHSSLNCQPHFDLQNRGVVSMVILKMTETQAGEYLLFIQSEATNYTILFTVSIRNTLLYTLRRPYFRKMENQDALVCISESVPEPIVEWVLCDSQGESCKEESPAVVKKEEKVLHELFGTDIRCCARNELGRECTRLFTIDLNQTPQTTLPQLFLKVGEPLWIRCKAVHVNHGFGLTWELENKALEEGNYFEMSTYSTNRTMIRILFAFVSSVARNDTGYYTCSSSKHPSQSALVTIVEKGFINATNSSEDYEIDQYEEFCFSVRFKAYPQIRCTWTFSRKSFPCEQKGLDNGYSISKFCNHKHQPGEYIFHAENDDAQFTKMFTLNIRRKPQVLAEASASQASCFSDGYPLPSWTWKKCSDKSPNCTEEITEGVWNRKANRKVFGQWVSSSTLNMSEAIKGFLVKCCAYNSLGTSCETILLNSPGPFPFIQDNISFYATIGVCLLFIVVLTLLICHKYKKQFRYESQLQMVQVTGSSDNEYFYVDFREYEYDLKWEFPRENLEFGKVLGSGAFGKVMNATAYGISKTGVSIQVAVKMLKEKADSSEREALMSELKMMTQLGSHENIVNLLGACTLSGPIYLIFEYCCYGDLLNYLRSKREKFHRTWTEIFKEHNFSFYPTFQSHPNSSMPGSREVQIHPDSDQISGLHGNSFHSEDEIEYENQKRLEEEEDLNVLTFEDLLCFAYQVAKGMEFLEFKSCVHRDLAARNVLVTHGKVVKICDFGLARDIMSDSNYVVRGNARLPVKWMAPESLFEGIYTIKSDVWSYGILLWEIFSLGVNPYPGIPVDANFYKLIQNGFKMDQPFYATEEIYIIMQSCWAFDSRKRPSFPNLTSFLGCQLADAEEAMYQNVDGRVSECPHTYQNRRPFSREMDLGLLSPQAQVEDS

Molecule: CN(C)S(=O)(=O)c1ccc2c(c1)/C(=C/c1cc3c([nH]1)CCCC3)C(=O)N2 [SU6656, (3Z)—N,N-dimethyl-2-oxo-3-(4,5,6,7-tetrahydro-1H-indol-2-ylmethylidene)-1H-indole-5-sulfonamide]
- RGC survival (live cell count) [1]: significantly increased RGC survival

Molecule: CNC(=O)c1cc(Oc2ccc(NC(=O)Nc3ccc(Cl)c(C(F)(F)F)c3)cc2)ccn1 [Sorafenib]
- pro-surviving activity on RGCs ([2]; Example 4, clinical protein kinase inhibitors, purified primary mouse RGC culture): lacking strong protective activity to RGC
- RGC neurite growth [3]: stimulate neurite growth as potently as sunitinib (1 μM)

Molecule: O=C(NC1CCOCC1)c1ccc(-c2cc(-c3c[nH]nc3-c3ccccn3)ccn2)cc1 [TGF-beta receptor inhibitor]
- RGC loss / RGC survival after optic nerve injury [4]: capable of reducing RGC loss
- RGC loss / RGC survival after optic nerve injury ([4]; listed as drawing 10): increased RGC survival

Molecule: CCN(CC)CCNC(=O)c1c(C)[nH]c(/C=C2\C(=O)Nc3ccc(F)cc32)c1C [sunitinib, N-[2-(diethylamino)ethyl]-5-[(Z)-(5-fluoro-1,2-dihydro-2-oxo-3H-indol-3-ylidine)methyl]-2,4-dimethyl-1H-pyrrole-3-carboxamide]
- toxicity to RGC in vitro ([2]; concentrations higher than 1 μM): higher concentrations exhibit toxicity
- reduction of number of apoptotic cells in GCL [5]: 38.9%
- reduction of RGC loss caused by AMPA ([6]; 100 μM AMPA): 4 folds
- reduction of RGC loss caused by NMDA ([6]; 100 μM NMDA): ~10 folds
- projected surviving RGCs ([4]; mouse, in vivo): 79.2%
- appearance of retina ([4]; mouse, in vivo, 15 mg/kg/day): obvious yellow appearance
- cells in GCL survived ([4]; systemic administration of 5 mg/kg/day for ten days after optic nerve crush): ~88.5%
- antagonism of detrimental effects of Flt31 on RGC ([7]; Flt31 at 16 ng/ml, sunitinib present in the media): 1.4 fold

B1: Flt31: Flt3 ligand, RTK ligand (protein, UniProt P49771 27-235, looked up)
Fms-related tyrosine kinase 3 …: TQDCSFQHSPISSDFAVKIRELSDYLLQDYPVTVASNLQDEELCGGLWRLVLAQRWMERLKTVAGSKMQGLLERVNTEIHFVTKCAFQPPPSCLRFVQTNISRLLQETSEQLVALKPWITRQNFSRCLELQCQPDSSTLPPPWSPRPLEATAPTAPQPPLLLLLLLPVGLLLLAAAWCLHWQRTRRRTPRPGEQVPPVPSPQDLLLVEH
- EC50 [8]: 4 ng/mL
- effect on RGC survival ([7]; Flt31 at 4 ng/ml): did not appear to affect RGC survival
- compromise of the pro-surviving activity of sunitinib ([7]; Flt31 at 4 ng/ml with sunitinib): 36.6%
- reduction of RGC survival ([7]; Flt31 at 16 ng/ml): 38.3%
